From PMC12153356, “An antisense oligomer conjugate with unpredicted bactericidal activity against Fusobacterium nucleatum” (mBio, 2025)

Key:
[1] = test system: F. nucleatum subsp. nucleatum ATCC 23726 (FNN23); assay: Determination of bactericidal effect by CFU spot assay; assay type: cell-based, Fusobacterium nucleatum subsp. nucleatum ATCC 23726; conditions: 10 µM, 1 × 10^5 CFU/mL in MHB, spotting on BHI agar plates, up to 96 h; three replicates
Protocol: To investigate the bactericidal effects of PNAs an o.n. culture of FNN23 grown in ColB was diluted 1:50 in fresh ColB and grown to OD600 0.5. This culture was then diluted 1:2,500 to 1 × 10^5 CFU/mL in MHB, and 190 µL of the culture was dispensed into a transparent 96-well plate (Nunc, Thermo Fischer Scientific) together with 10 µL of respective 20× PNA stock or water and incubated at 37°C with 237 cpm shaking every 20 min. At the respective time points, 100 µL was taken out of the well, a 1:10 serial dilution series was prepared with 900 µL anoxic 1× PBS, and 5 µL of each dilution was spotted on BHI plates for CFU determination. Plates were incubated for 3 days at 37°C before taking out the plates of the anaerobic chamber for CFU counting.

[2] = test system: F. periodonticum 2_1_31 (FPE); assay: Growth inhibition assay; assay type: cell-based, Fusobacterium periodonticum 2_1_31; conditions: 10 µM, MHB, 1 × 10^5 CFU/mL input, three replicates
From the text: (§1) The following fusobacterial strains were used in this study: Fusobacterium nucleatum subsp. nucleatum ATCC 23726 (FNN23) acquired from the American Type Culture Collection (ATCC), F. nucleatum subsp. nucleatum ATCC 25586 (FNN25), F. nucleatum subsp. vincentii ATCC 49256 (FNV), and F. nucleatum subsp. polymorphum ATCC 10953 (FNP) acquired from the German Collection of Microorganisms and Cell Culture (DSMZ), F. nucleatum subsp. animalis 7_1 (FNA) and F. periodonticum 2_1_31 (FPE) both received as a kind gift from E. Allen-Vercoe (University of Guelph, Canada). All strains were routinely grown at 37°C in 80:10:10 (N2:H2:CO2) anaerobic conditions on 2% agar supplemented BHI plates (BHI, 1% [wt:vol] dried yeast extract, 1% [vol:vol] 50% sterile-filtered glucose solution, 5 µg/mL of hemin; 1% [vol:vol] fetal bovine serum) from frozen 20% glycerol stocks kept at −80°C. For liquid growth, the strains were cultured in Columbia broth (ColB; BD Difco). Precultures were prepared 24 h before inoculating the working culture at a 1:50 dilution in fresh ColB until OD600 0.5 was reached. Cultures were then diluted in non-cation adjusted Mueller-Hinton Broth (MHB, BD Difco) to the desired CFU/mL number. P. gingivalis (DSM 20709) was purchased from DSMZ and grown at 37°C in anaerobic conditions as mentioned above on 2% agar supplemented BHI+ plates (BHI, 1% [wt:vol] dried yeast extract, 1% [vol:vol] 50% sterile filtered glucose solution, 5 µg/ml of hemin; 10% [vol:vol] fetal bovine serum; and 1 µg/mL vitamin K3) for 4 days. […]
(§2) To determine the MIC value, broth microdilutions were performed according to the standard protocol with some modifications ([119]). […] Bacterial growth was monitored by measuring OD600 every 20 min with constant shaking in a plate reader (Biotek) under the normal atmospheric environment or positioned in the anaerobic chamber with double orbital shaking every 20 min prior to each measurement with 237 cpm at 37°C for 120 h.

[3] = test system: E. coli K12 MG1655; assay: Growth inhibition assay; assay type: cell-based, Escherichia coli K12; conditions: 10 µM, MHB, 1 × 10^5 CFU/mL input, aerobic, 24 h
Protocol: Aerobic bacterial culture was conducted with E. coli K12 MG1655 (provided by D. Lee), E. coli Nissle 1917, and S. enterica serovar Typhimurium SL1344 (provided by D. Bumann, Biocenter Basel, Switzerland). The strains were streaked on lysogeny broth plates, incubated o.n. at 37°C and cultured in non-cation-adjusted MHB with aeration at 37°C and 220 rpm constant shaking.
To determine the MIC value, broth microdilutions were performed according to the standard protocol with some modifications ([119]). An overnight bacterial culture was diluted in a fresh ColB medium and grown to OD600 0.5 (mid-exponential phase). Fusobacteria were then diluted 1:2,500 or 1:250 in fresh MHB to obtain 1 × 10^5 CFU/mL or 1 × 10^6 CFU/mL as indicated. To determine the growth inhibition of P. gingivalis, an o.n. culture grown in BHI+ was diluted 1:1,500 in MHB to obtain 1 × 10^5 CFU/mL. E. coli K12, E. coli Nissle 1917, and S. enterica o.n. cultures grown in MHB were diluted 1:1,800 in fresh MHB to obtain 1 × 10^5 CFU/mL. […] Bacterial growth was monitored by measuring OD600 every 20 min with constant shaking in a plate reader (Biotek) under the normal atmospheric environment or positioned in the anaerobic chamber with double orbital shaking every 20 min prior to each measurement with 237 cpm at 37°C for 120 h.

[4] = test system: F. nucleatum subsp. vincentii ATCC 49256 (FNV); assay: Growth inhibition assay; assay type: cell-based, Fusobacterium nucleatum subsp. vincentii ATCC 49256; conditions: 10 µM, MHB, 1 × 10^5 CFU/mL input, three replicates
From the text: (§3) The following fusobacterial strains were used in this study: Fusobacterium nucleatum subsp. nucleatum ATCC 23726 (FNN23) acquired from the American Type Culture Collection (ATCC), F. nucleatum subsp. nucleatum ATCC 25586 (FNN25), F. nucleatum subsp. vincentii ATCC 49256 (FNV), and F. nucleatum subsp. polymorphum ATCC 10953 (FNP) acquired from the German Collection of Microorganisms and Cell Culture (DSMZ), F. nucleatum subsp. animalis 7_1 (FNA) and F. periodonticum 2_1_31 (FPE) both received as a kind gift from E. Allen-Vercoe (University of Guelph, Canada). All strains were routinely grown at 37°C in 80:10:10 (N2:H2:CO2) anaerobic conditions on 2% agar supplemented BHI plates (BHI, 1% [wt:vol] dried yeast extract, 1% [vol:vol] 50% sterile-filtered glucose solution, 5 µg/mL of hemin; 1% [vol:vol] fetal bovine serum) from frozen 20% glycerol stocks kept at −80°C. For liquid growth, the strains were cultured in Columbia broth (ColB; BD Difco). […]
as §2

[5] = test system: F. nucleatum subsp. polymorphum ATCC 10953 (FNP); assay: Growth inhibition assay; assay type: cell-based, Fusobacterium nucleatum subsp. polymorphum ATCC 10953; conditions: 10 µM, MHB, 1 × 10^5 CFU/mL input, three replicates
From the text: as §1, §2

[6] = test system: P. gingivalis (DSM 20709); assay: Growth inhibition assay; assay type: cell-based, Porphyromonas gingivalis; conditions: 10 µM, MHB, 1 × 10^5 CFU/mL input, anaerobic, OD600 for 144 h
From the text: as §3, with “Difco). Precultures were prepared 24 h before inoculating the working culture at a 1:50 dilution in fresh ColB until OD600 0.5 was reached.” for “Difco).”
To determine the MIC value, broth microdilutions were performed according to the standard protocol with some modifications ([119]). […] […] a plate reader (Biotek) under the normal atmospheric environment or positioned in the anaerobic chamber with double orbital […]

[7] = test system: F. nucleatum subsp. nucleatum ATCC 25586 (FNN25); assay: Growth inhibition assay; assay type: cell-based, Fusobacterium nucleatum subsp. nucleatum ATCC 25586; conditions: 10 µM, MHB, 1 × 10^5 CFU/mL input, three replicates
From the text: as §1, §2

Substance | Bactericidal effect (viable cells, CFU) on FNN23 [1] | Growth inhibition of FPE [2] | Growth inhibition of E. coli K12 [3] | Growth inhibition of FNV [4] | Growth inhibition of FNP [5] | Growth inhibition of P. gingivalis [6] | Growth inhibition of FNN25 [7]
(RXR)4XB-GACATAATTGT [FUS79, non-targeting (RXR)4XB-PNA 11-mer control, (RXR)4XB-…] | no visible CFUs detected on the agar plate after 96 h | inhibited the growth | no growth inhibition | inhibited the growth of all strains, except FNV | inhibited the growth | no growth inhibition | inhibited the growth
RXRRXRRXRRXRXB [PNAscr] | no bactericidal effect | growth retardation compared with the water control | no growth inhibition | growth retardation compared with the water control | growth retardation compared with the water control | no growth inhibition | growth retardation compared with the water control
